# From the supplement of paper PMC10307832
# What was measured:
# Assay in all cases: relative viability (nuclei count vs DMSO), 5 days (fraction); higher = more cells survive
# 4EGI-1 + Crizotinib = compound: O=C(O)C(Cc1ccccc1[N+](=O)[O-])=NNc1nc(-c2ccc(Cl)c(Cl)c2)cs1 (mixture of isomers) [4EGI-1] + C[C@@H](Oc1cc(-c2cnn(C3CCNCC3)c2)cnc1N)c1c(Cl)ccc(F)c1Cl [Crizotinib] (partner 1 µM)
# Summary of the method: (§1)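 After 5 days of treatment, lung cancer cells in 1536-well plates were fixed and stained in a single step (final 0.05% Triton X-100, 1% formaldehyde, 1 ug/ml Hoechst) and their nuclei counted on 4× images. Treatment had been applied by pin tool the day after seeding as one drug alone or as a fixed anchor-drug dose with five library-drug doses (not always all listed) in √10 steps. Relative viability is the nuclei count of treated wells divided by that of vehicle wells, and values are medians of duplicate plates.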
# 4EGI-1 + Pemetrexed = compound: O=C(O)C(Cc1ccccc1[N+](=O)[O-])=NNc1nc(-c2ccc(Cl)c(Cl)c2)cs1 (mixture of isomers) [4EGI-1] + Nc1nc2[nH]cc(CCc3ccc(C(=O)N[C@@H](CCC(=O)O)C(=O)O)cc3)c2c(=O)[nH]1 [Pemetrexed] (partner 0.2 µM)
# Summary of the method: as §1
# XMD8-85 + Tozasertib = compound: CN1CCN(CC1)C2=CC(=C(C=C2)NC3=NC=C4C(=N3)N(C5=CC=CC=C5C(=O)N4C)C)OC [XMD8-85] + Cc1cc(Nc2cc(N3CCN(C)CC3)nc(Sc3ccc(NC(=O)C4CC4)cc3)n2)n[nH]1 [Tozasertib] (partner 0.1 µM)
# Summary of the method: as §1
# 4EGI-1 + Navitoclax = compound: O=C(O)C(Cc1ccccc1[N+](=O)[O-])=NNc1nc(-c2ccc(Cl)c(Cl)c2)cs1 (mixture of isomers) [4EGI-1] + CC1(C)CCC(c2ccc(Cl)cc2)=C(CN2CCN(c3ccc(C(=O)NS(=O)(=O)c4ccc(N[C@H](CCN5CCOCC5)CSc5ccccc5)c(S(=O)(=O)C(F)(F)F)c4)cc3)CC2)C1 [Navitoclax] (partner 0.5 µM)
# Summary of the method: as §1
Cell Line,relative viability (4EGI-1 + Crizotinib; first compound 0.5 µM),relative viability (4EGI-1 + Crizotinib; first compound 1.581 µM),relative viability (4EGI-1 + Crizotinib; first compound 5 µM),relative viability (4EGI-1 + Crizotinib; first compound 15.81 µM),relative viability (4EGI-1 + Crizotinib; first compound 50 µM),relative viability (4EGI-1 + Pemetrexed; first compound 0.5 µM),relative viability (4EGI-1 + Pemetrexed; first compound 5 µM),relative viability (4EGI-1 + Pemetrexed; first compound 15.81 µM),relative viability (4EGI-1 + Pemetrexed; first compound 50 µM),relative viability (XMD8-85 + Tozasertib; first compound 0.08 µM),relative viability (XMD8-85 + Tozasertib; first compound 0.253 µM),relative viability (XMD8-85 + Tozasertib; first compound 0.8 µM),relative viability (XMD8-85 + Tozasertib; first compound 2.53 µM),relative viability (XMD8-85 + Tozasertib; first compound 8 µM),relative viability (4EGI-1 + Navitoclax; first compound 0.5 µM),relative viability (4EGI-1 + Navitoclax; first compound 1.581 µM),relative viability (4EGI-1 + Navitoclax; first compound 5 µM),relative viability (4EGI-1 + Navitoclax; first compound 15.81 µM),relative viability (4EGI-1 + Navitoclax; first compound 50 µM),relative viability (4EGI-1 + Pemetrexed; first compound 1.581 µM)
EKVX,1.01,0.759,1.14,0.874,0.936,0.418,0.407,0.325,0.368,0.404,0.34,0.41,0.427,0.276,1.09,0.77,0.911,0.803,0.603,
COR-L23,0.687,0.412,0.64,0.521,0.141,0.223,0.194,0.204,0.215,0.222,0.216,0.197,0.163,0.144,1.22,0.802,1.1,0.691,0.147,0.189
SW 1573,0.937,0.842,0.87,0.722,0.424,0.963,0.794,0.329,0.126,0.222,0.197,0.175,0.174,0.156,1.26,0.927,0.947,0.843,0.674,0.742
NCI-H1648,,,,,,0.728,0.745,0.643,0.689,0.438,0.394,,,0.324,,,,,,0.782
COR-L 105,0.722,0.626,0.789,0.887,0.784,1.2,1.14,0.905,0.98,0.405,0.363,0.338,0.377,0.26,0.618,0.668,1.02,0.597,0.43,0.996
NCI-H2023,0.766,,0.637,0.442,0.302,0.263,0.223,0.164,0.101,0.266,0.355,0.432,0.335,0.163,1,,0.989,0.626,0.175,
NCI-H1355,1.18,0.952,1.03,0.779,0.748,0.967,0.99,0.963,0.589,0.473,0.467,0.525,0.376,0.314,1.07,0.95,0.841,0.644,0.677,0.927
NCI-H1975,0.951,0.889,0.939,0.972,0.636,0.298,0.287,0.283,0.21,0.701,0.721,0.763,0.485,0.145,1.2,1.05,0.984,1.08,1.18,0.274
NCI-H1299,0.98,1,0.914,0.973,0.386,,,,,,,,,,1.1,1.04,1.04,0.986,1.08,
EPLC-272H,0.929,0.505,1.03,0.94,0.947,0.372,0.322,0.29,0.245,0.294,0.241,0.557,0.281,0.25,1.31,0.938,1.35,0.951,0.969,0.304
Calu-6,0.796,0.756,0.854,0.834,0.201,,,,,,,,,,0.909,0.759,1.01,0.847,0.213,
EBC-1,0.205,0.247,0.162,0.183,0.224,,,,,,,,,,0.525,0.402,0.624,0.308,0.142,
A549,0.742,0.683,0.787,0.669,0.0783,,,,,,,,,,1.29,1.2,1.24,1.17,0.217,
IA-LM,0.903,0.629,0.569,0.112,0.0835,,,,,,,,,,0.889,0.751,0.444,0.112,0.0676,
NCI-H522,,,,,,0.948,1.07,1.06,0.718,0.557,0.562,0.41,0.519,0.467,,,,,,0.981
NCI-H2342,,,,,,0.884,0.813,0.978,0.702,0.529,0.46,0.478,0.424,0.405,,,,,,0.723
NCI-H358,0.566,0.413,0.645,0.378,0.247,0.177,0.178,0.174,0.165,0.106,0.0979,0.119,0.11,0.0877,,,,,,0.187
NCI-H1395,,,,,,0.878,1.12,0.917,0.421,0.768,0.786,0.716,0.693,0.571,1.38,,1.27,1.09,0.566,
NCI-H650,0.847,,0.811,0.596,0.59,0.966,1.06,0.973,0.725,0.738,0.713,0.68,0.608,0.338,,,,,,
NCI-H661,0.903,,0.954,0.903,0.882,0.939,0.92,0.761,0.334,0.383,0.346,0.366,0.353,0.392,,,,,,0.834
ABC-1,1.23,0.7,1.09,0.472,0.259,,,,,0.142,0.159,0.19,0.15,0.231,,,,,,
NCI-H727,1.7,0.926,0.716,0.588,0.343,,,,,0.55,0.588,0.6,0.458,0.47,0.434,0.519,0.427,0.257,0.204,
